From patent US6562793B2, “Antiallergic agent” (We'll Corporation, priority 2000, dated 2003) come the findings set out here.

Data set [1] relates to mast cells from the rat abdominal cavity. Nature of the data set: Inhibition of histamine release from mast cells from a rat abdominal cavity. The note with it: Releaser: Compound 48/80. The data set is classed as cell-based. The protocol: A mast cell suspension is collected from a rat abdominal cavity. The suspension is treated with a sample adjusted to 1 to 0.01% (specimen) and to the mixture is added a histamine releasing agent. Inhibition of this release is observed to determine an activity value. […]
A solution of sample adjusted to a concentration of 0.01 to 0.003% in Tyrode's solution containing phosphatidyl-L-serine (PS) (1.75 mL) was preincubated at 37° C. for 5 min. To the solution was added 0.05 mL of the mast cell suspension from the rat abdominal cavity and the mixture was preincubated for further 15 min. […] A control was prepared as described above except that 1.75 mL of Tyrode's solution containing PS was used in place of 1.75 mL of the sample solution in Tyrode's solution containing PS and 0.2 mL of […] PS. After quenching the reaction by ice cooling, the mixture was centrifuged at 300×g and 4° C. for 10 min. The amounts of histamine were determined for the supernatant and the sediment, respectively, according to the method of Shore et al. to calculate an inhibition rate to histamine release.
Calculation equation for a histamine release rate [formula]
PS=Amount of histamine in the supernatant
PR=Amount of histamine remaining in the cells
Calculation equation for a release inhibition rate [formula]
S=Release rate of the sample
C=Release rate of the control […]

Another data set in a line: Solubility in water. The format is physicochemical.

Each structure is given as a SMILES string.

`O=c1c(O[C@@H]2OC(CO[C@@H]3OC(CO)[C@@H](O)C(O)C3O)[C@@H](O)C(O)C2O)c(-c2ccc(O)cc2)oc2cc(O)cc(O)c12` (stereo partly drawn) [kaempferol 3-0 [β-D-glucopyranosyl-(1→6)-β-D-glucopyranoside]]: the Inhibition rate in data set [1] (concentration 3 × 10^−5 g/mL) is reported as 28.5%; in data set [1] (concentration 9 × 10^−5 g/mL), 98.4%. In the data set “Solubility in water”, the solubility in water entry was “freely soluble”.
